Measurements as given in US9149038B2, “4-amino-6-(heterocyclic)picolinates and 6-amino-2-(heterocyclic)pyrimidine-4-carboxylates and their use as herbicides” (Dow AgroSciences LLC, priority 2013, dated 2015).
Where two headings read alike, the source gives them in different places.

System: Direct Seeded Rice and weed species
Test: Postemergence herbicidal activity in direct seeded rice, visual rating after 20-22 days and probit GR20/GR50/GR80/GR90 (Table 14)
Format: in vivo
Settings: for pest or weed control at 17.5 g/ha / pest or weed control at 35 g/ha / pest or weed control at 70 g/ha: post-emergence, 504 h, postemergence; for pest or weed control at 17.5 g/ha: 17.5 g ai/ha; for pest or weed control at 35 g/ha: 35 g ai/ha; for pest or weed control at 70 g/ha: 70 g ai/ha
Text: Herbicidal evaluations were made visually on a scale of 0 to 100 where 0 represents no activity and 100 represents complete plant death. Seeds or nutlets of the desired test plant species were planted in a soil matrix prepared by mixing a loam soil (43 percent silt, 19 percent clay, and 38 percent sand, with a pH of about 8.1 and an organic matter content of about 1.5 percent) and river sand in an 80 to 20 ratio. The soil matrix was contained in plastic pots with a surface area of 139.7 cm^2. When required to ensure good germination and healthy plants, a fungicide treatment and/or other chemical or physical treatment was applied. The plants were grown for 10-17 d in a greenhouse with an approximate 14-h photoperiod which was maintained at about 29° C. during the day and 26° C. during the night. Nutrients and water were added on a regular basis and supplemental lighting was provided with overhead metal halide 1000-Watt lamps as necessary. The plants were employed for testing when they reached the second or third true leaf stage. A weighed amount, determined by the highest rate to be tested, of each test compound was placed in 25 mL glass vials and dissolved in a volume of 97:3 v/v acetone-DMSO to obtain 12× stock solutions. […] The concentrated stock solutions were added to the spray solutions so that the final acetone and DMSO concentrations were 16.2% and 0.5%, respectively. Spray solutions were diluted to the appropriate final concentrations with the addition of 10 mL of an aqueous mixture of 1.5% (v/v) Agri-dex crop oil concentrate. The final spray solutions contained 1.25% (v/v) Agri-dex crop oil concentrate. Compound requirements are based upon a 12 mL application volume at a rate of 187 L/ha. Formulated compounds were applied to the plant material with an overhead Mandel track sprayer equipped with […] nozzles calibrated to deliver 187 L/ha over an application area of 0.503 square meters (m^2) at a spray height of 18 inches (43 cm) above average plant canopy height. Control plants were sprayed in the same manner with the solvent blank. The treated plants and control plants were placed in a greenhouse as described above and watered by sub-irrigation to prevent wash-off of the test compounds. After 20-22 days, the condition of the test plants, compared with that of the untreated plants, was determined visually and scored on a scale of 0 to 100 percent where 0 corresponds to no injury and 100 corresponds to complete kill and are presented as indicated in Table 4. By applying the well-accepted probit analysis as described by J. Berkson in Journal of the American Statistical Society, 48, 565 (1953) and by D. Finney in “Probit Analysis” Cambridge University Press (1952), herbicidal injury of a specific compound at various rates can be used to calculate GR20, GR50, GR80 and GR90 values, which are defined as growth reduction factors that correspond to the effective dose of herbicide required to provide plant growth reduction (GR) of 20 percent, 50 percent, 80 percent and 90 percent, respectively. Probit analysis was applied to data collected from multiple dose rates of individual compounds utilizing the procedures explained in the following examples. The data for some of the dose rates and analysis of all of the dose rates are captured in the following tables.

[1] = BRAPP (broadleaf signalgrass, Brachiaria platyphylla), read-out: Visual Growth Reduction (%) 21 Days After Application BRAPP
[2] = CYPDI (small-flower flatsedge, Cyperus difformis), read-out: Visual Growth Reduction (%) 21 Days After Application CYPDI
[3] = CYPES (yellow nutsedge, Cyperus esculentus), read-out: Visual Growth Reduction (%) 21 Days After Application CYPES
[4] = CYPIR (rice flatsedge, Cyperus iria), read-out: Visual Growth Reduction (%) 21 Days After Application CYPIR
[5] = DIGSA (large crabgrass, Digitaria sanguinalis), read-out: Visual Growth Reduction (%) 21 Days After Application DIGSA
[6] = ECHCG (barnyardgrass, Echinochloa crus-galli), read-out: Visual Growth Reduction (%) 21 Days After Application ECHCG
[7] = ECHCO (junglerice, Echinochloa colonum), read-out: Visual Growth Reduction (%) 21 Days After Application ECHCO
[8] = LEFCH (Chinese sprangletop, Leptochloa chinensis), read-out: Visual Growth Reduction (%) 21 Days After Application LEFCH
[9] = ORYSJ (Oryza sativa, rice crop), read-out: Visual Growth Reduction (%) 21 Days After Application ORYSJ
[10] = ORYSK (Oryza sativa, rice crop), read-out: Visual Growth Reduction (%) 21 Days After Application ORYSK
[11] = SCPJU (Japanese bulrush, Schoenoplectus juncoides Roxb.), read-out: Visual Growth Reduction (%) 21 Days After Application SCPJU
[12] = SEBEX (hemp sesbania, Sesbania exaltata), read-out: Visual Growth Reduction (%) 21 Days After Application SEBEX

Nc1c(F)c(-c2ccc3c(c2F)OC(F)(F)O3)nc(C(=O)O)c1Cl [Compound 11]
GR50 BRAPP (BRAPP (Brachiaria platyphylla), probit analysis, dose for 50 percent growth reduction): 7 g ai/ha
GR80 BRAPP (BRAPP (Brachiaria platyphylla), probit analysis, dose for 80 percent growth reduction): 16 g ai/ha
GR90 BRAPP (BRAPP (Brachiaria platyphylla), probit analysis, dose for 90 percent growth reduction): 25 g ai/ha
GR50 CYPDI (CYPDI (Cyperus difformis), probit analysis, dose for 50 percent growth reduction): 3 g ai/ha
GR80 CYPDI (CYPDI (Cyperus difformis), probit analysis, dose for 80 percent growth reduction): 7 g ai/ha
GR90 CYPDI (CYPDI (Cyperus difformis), probit analysis, dose for 90 percent growth reduction): 10 g ai/ha
GR50 CYPES (CYPES (Cyperus esculentus), probit analysis, dose for 50 percent growth reduction): <18 g ai/ha
GR80 CYPES (CYPES (Cyperus esculentus), probit analysis, dose for 80 percent growth reduction): <18 g ai/ha
GR90 CYPES (CYPES (Cyperus esculentus), probit analysis, dose for 90 percent growth reduction): <18 g ai/ha
GR50 CYPIR (CYPIR (Cyperus iria), probit analysis, dose for 50 percent growth reduction): 5 g ai/ha
GR80 CYPIR (CYPIR (Cyperus iria), probit analysis, dose for 80 percent growth reduction): 7 g ai/ha
GR90 CYPIR (CYPIR (Cyperus iria), probit analysis, dose for 90 percent growth reduction): 7 g ai/ha
GR50 DIGSA (DIGSA (Digitaria sanguinalis), probit analysis, dose for 50 percent growth reduction): 1 g ai/ha
GR80 DIGSA (DIGSA (Digitaria sanguinalis), probit analysis, dose for 80 percent growth reduction): 4 g ai/ha
GR90 DIGSA (DIGSA (Digitaria sanguinalis), probit analysis, dose for 90 percent growth reduction): 9 g ai/ha
GR50 ECHCG (ECHCG (Echinochloa crus-galli), probit analysis, dose for 50 percent growth reduction): 7 g ai/ha
GR80 ECHCG (ECHCG (Echinochloa crus-galli), probit analysis, dose for 80 percent growth reduction): 15 g ai/ha
GR90 ECHCG (ECHCG (Echinochloa crus-galli), probit analysis, dose for 90 percent growth reduction): 23 g ai/ha
GR50 ECHCO (ECHCO (Echinochloa colonum), probit analysis, dose for 50 percent growth reduction): 4 g ai/ha
GR80 ECHCO (ECHCO (Echinochloa colonum), probit analysis, dose for 80 percent growth reduction): 9 g ai/ha
GR90 ECHCO (ECHCO (Echinochloa colonum), probit analysis, dose for 90 percent growth reduction): 14 g ai/ha
GR50 LEFCH (LEFCH (Leptochloa chinensis), probit analysis, dose for 50 percent growth reduction): 23 g ai/ha
GR80 LEFCH (LEFCH (Leptochloa chinensis), probit analysis, dose for 80 percent growth reduction): 34 g ai/ha
GR90 LEFCH (LEFCH (Leptochloa chinensis), probit analysis, dose for 90 percent growth reduction): 41 g ai/ha
GR20 ORYSJ (ORYSJ (Oryza sativa, rice crop), probit analysis, dose for 20 percent growth reduction): 8 g ai/ha
GR20 ORYSK (ORYSK (Oryza sativa, rice crop), probit analysis, dose for 20 percent growth reduction): 7 g ai/ha
GR50 SCPJU (SCPJU (Schoenoplectus juncoides Roxb.), probit analysis, dose for 50 percent growth reduction): 0.04 g ai/ha
GR80 SCPJU (SCPJU (Schoenoplectus juncoides Roxb.), probit analysis, dose for 80 percent growth reduction): 1 g ai/ha
GR90 SCPJU (SCPJU (Schoenoplectus juncoides Roxb.), probit analysis, dose for 90 percent growth reduction): 2 g ai/ha
GR50 SEBEX (SEBEX (Sesbania exaltata), probit analysis, dose for 50 percent growth reduction): 3 g ai/ha
GR80 SEBEX (SEBEX (Sesbania exaltata), probit analysis, dose for 80 percent growth reduction): 7 g ai/ha
GR90 SEBEX (SEBEX (Sesbania exaltata), probit analysis, dose for 90 percent growth reduction): 10 g ai/ha
pest or weed control at 17.5 g/ha [1]: 85 to 94%
pest or weed control at 35 g/ha [1]: 95 to 100%
pest or weed control at 70 g/ha [1]: 95 to 100%
pest or weed control at 17.5 g/ha [2]: 95 to 100%
pest or weed control at 35 g/ha [2]: 95 to 100%
pest or weed control at 70 g/ha [2]: 95 to 100%
pest or weed control at 17.5 g/ha [3]: 85 to 94%
pest or weed control at 35 g/ha [3]: 95 to 100%
pest or weed control at 70 g/ha [3]: 95 to 100%
pest or weed control at 17.5 g/ha [4]: 95 to 100%
pest or weed control at 35 g/ha [4]: 95 to 100%
pest or weed control at 70 g/ha [4]: 95 to 100%
pest or weed control at 17.5 g/ha [5]: 95 to 100%
pest or weed control at 35 g/ha [5]: 95 to 100%
pest or weed control at 70 g/ha [5]: 95 to 100%
pest or weed control at 17.5 g/ha [6]: 95 to 100%
pest or weed control at 35 g/ha [6]: 85 to 94%
pest or weed control at 70 g/ha [6]: 95 to 100%
pest or weed control at 17.5 g/ha [7]: 95 to 100%
pest or weed control at 35 g/ha [7]: 95 to 100%
pest or weed control at 70 g/ha [7]: 95 to 100%
pest or weed control at 17.5 g/ha [8]: 0 to 29%
pest or weed control at 35 g/ha [8]: 95 to 100%
pest or weed control at 70 g/ha [8]: 95 to 100%
pest or weed control at 17.5 g/ha [9]: 30 to 44%
pest or weed control at 35 g/ha [9]: 75 to 84%
pest or weed control at 70 g/ha [9]: 85 to 94%
pest or weed control at 17.5 g/ha [10]: 45 to 59%
pest or weed control at 35 g/ha [10]: 60 to 74%
pest or weed control at 70 g/ha [10]: 75 to 84%
pest or weed control at 17.5 g/ha [11]: 95 to 100%
pest or weed control at 35 g/ha [11]: 95 to 100%
pest or weed control at 70 g/ha [11]: 95 to 100%
pest or weed control at 17.5 g/ha [12]: 95 to 100%
pest or weed control at 35 g/ha [12]: 95 to 100%
pest or weed control at 70 g/ha [12]: 95 to 100%
